In BindingDB's records for doi:10.1021/acs.jmedchem.6b00948 (Fimbrion Therapeutics, 2016):

assay: Inhibition of Escherichia coli UTI89 FimH-mediated biofilm formation after 48 hrs by crystal violet staining-based assay

Row | Structure (SMILES) | IC50
1 | Cc1cc(-c2ccc3cc[nH]c(=O)c3c2)ccc1O[C@H]1O[C@H](CO)[C@@H](O)[C@H](O)[C@@H]1O | 130 nM
2 | Cc1cc(-c2cccc3cnccc23)ccc1O[C@H]1O[C@H](CO)[C@@H](O)[C@H](O)[C@@H]1O | 140 nM
3 | Cc1cc(-c2ccc3c(c2)C(=O)NCC3)ccc1O[C@H]1O[C@H](CO)[C@@H](O)[C@H](O)[C@@H]1O | 250 nM
4 | CNC(=O)c1cccc(-c2ccc([C@@H](O)[C@H]3O[C@H](CO)[C@@H](O)[C@H](O)[C@@H]3O)cc2)c1 | 900 nM
5 | Cc1cc(-c2ccc3ccnc(N)c3c2)ccc1O[C@H]1O[C@H](CO)[C@@H](O)[C@H](O)[C@@H]1O | 340 nM
6 | CNC(=O)c1cccc(-c2ccc([C@H](O)[C@H]3O[C@H](CO)[C@@H](O)[C@H](O)[C@@H]3O)c(C)c2)c1 | 11000 nM
7 | CNC(=O)c1cccc(-c2ccc([C@@H](O)[C@H]3O[C@H](CO)[C@@H](O)[C@H](O)[C@@H]3O)c(C)c2)c1 | 80 nM
8 | CNC(=O)c1cccc(-c2ccc(O[C@H]3O[C@H](CO)[C@@H](O)[C@H](O)[C@@H]3O)cc2)c1 | 1350 nM
9 | Cc1cc(-c2ccc3c(c2)C(=O)NCC3)ccc1[C@@H](O)[C@H]1O[C@H](CO)[C@@H](O)[C@H](O)[C@@H]1O | 40 nM
10 | Cc1cc(-c2ccc3cc[nH]c(=O)c3c2)ccc1[C@@H](O)[C@H]1O[C@H](CO)[C@@H](O)[C@H](O)[C@@H]1O | 30 nM
11 | Cc1cc(-c2ccc3ccnc(N)c3c2)ccc1[C@@H](O)[C@H]1O[C@H](CO)[C@@H](O)[C@H](O)[C@@H]1O | 40 nM
12 | Cc1cc(-c2cccc3cnccc23)ccc1[C@@H](O)[C@H]1O[C@H](CO)[C@@H](O)[C@H](O)[C@@H]1O | 600 nM
13 | CNC(=O)c1cccc(-c2ccc([C@H](O)[C@H]3O[C@H](CO)[C@@H](O)[C@H](O)[C@@H]3O)cc2)c1 | 38000 nM
14 | CNC(=O)c1cccc(-c2ccc(O[C@H]3O[C@H](CO)[C@@H](O)[C@H](O)[C@@H]3O)c(C)c2)c1 | 150 nM
